{
  "source": "patent US10570129B2",
  "about": "(Zoetis Services LLC, priority 2015, dated 2020)",
  "key": {"[1]": {"system": "Haemonchus contortus L3", "assay": "microbe, parasite or virus in culture", "format": "cell-based", "details": "for minimal effective concentration: Haemonchus contortus, 96 h, read-out: HcL3 Minimal Effective Concentration (MEC)"}, "[2]": {"system": "D. immitis microfilariae", "assay": "Dirofilaria immitis, microfilariae (DiMF) in vitro motility assay", "format": "cell-based", "details": "for minimal effective concentration: Dirofilaria immitis, 72 h, read-out: DiMF minimally effective dose (MEC)"}},
  "data": [
    {"compound": "O=C(NCc1ccnc(F)c1)n1c2c(c3cc(F)c(OC(F)(F)F)cc31)CN(C/C=C/c1ccc(Cl)cc1)CC2", "note": "[Example 472, (E)-2-(3-(4-chlorophenyl)allyl)-8-fluoro-N-((2-fluoropyridin-4-yl)methyl)-7-(trifluoromethoxy)-1,2,3,4-tetrahydro-5H-pyrido[4,3-b]indole-5-carboxamide]", "values": [
      {"measurement": "minimal effective concentration", "setting": "[1]", "value": 1, "unit": "µM"},
      {"measurement": "minimal effective concentration", "setting": "[2]", "value": 10, "unit": "µM"}
    ]},
    {"compound": "NC(=O)c1ccc2c3c(n(C(=O)NCc4ccnc(Cl)c4)c2c1)CCN(C/C=C/c1ccc(F)cc1)C3", "note": "[Example 466, (E)-N^5-((2-chloropyridin-4-yl)methyl)-2-(3-(4-fluorophenyl)allyl)-1,2,3,4-tetrahydro-5H-pyrido[4,3-b]indole-5,7-dicarboxamide]", "values": [
      {"measurement": "minimal effective concentration", "setting": "[1]", "value": "> 100", "unit": "µM"},
      {"measurement": "minimal effective concentration", "setting": "[2]", "value": 3.3, "unit": "µM"}
    ]},
    {"compound": "O=C(NCc1ccnc(F)c1)n1c2c(c3cc(Cl)c(Cl)cc31)CN(C/C=C/c1ccc(Cl)cc1)CC2", "note": "[Example 292, (E)-7,8-dichloro-2-(3-(4-chlorophenyl)allyl)-N-((2-fluoropyridin-4-yl)methyl)-1,2,3,4-tetrahydro-5H-pyrido[4,3-b]indole-5-carboxamide]", "values": [
      {"measurement": "minimal effective concentration", "setting": "[1]", "value": 3.3, "unit": "µM"},
      {"measurement": "minimal effective concentration", "setting": "[2]", "value": 5.7, "unit": "µM"}
    ]},
    {"compound": "O=C(NCc1ccnc(Cl)c1)n1c2c(c3cc(Cl)c(Cl)cc31)CN(C/C=C/c1ccc(Cl)cc1)CC2", "note": "[Example 280, (E)-7,8-dichloro-2-(3-(4-chlorophenyl)allyl)-N-((2-chloropyridin-4-yl)methyl)-1,2,3,4-tetrahydro-5H-pyrido[4,3-b]indole-5-carboxamide]", "values": [
      {"measurement": "minimal effective concentration", "setting": "[1]", "value": 0.3, "unit": "µM"},
      {"measurement": "minimal effective concentration", "setting": "[2]", "value": "> 100", "unit": "µM"}
    ]},
    {"compound": "N#Cc1ccc(/C=C/CN2CCc3c(c4cc(OC(F)(F)F)ccc4n3C(=O)NCc3ccnc(F)c3)C2)cc1F", "note": "[Example 402, (E)-2-(3-(4-cyano-3-fluorophenyl)allyl)-N-((2-fluoropyridin-4-yl)methyl)-8-(trifluoromethoxy)-1,2,3,4-tetrahydro-5H-pyrido[4,3-b]indole-5-carboxamide]", "values": [
      {"measurement": "minimal effective concentration", "setting": "[1]", "value": 0.3, "unit": "µM"},
      {"measurement": "minimal effective concentration", "setting": "[2]", "value": 5.7, "unit": "µM"}
    ]},
    {"compound": "O=C(NCc1ccnc(Cl)c1)n1c2c(c3c(Cl)c(F)ccc31)CN(C/C=C/c1ccc(C(F)(F)F)cc1)CC2", "note": "[Example 308, (E)-9-chloro-N-((2-chloropyridin-4-yl)methyl)-8-fluoro-2-(3-(4-(trifluoro-methyl)phenyl)allyl)-1,2,3,4-tetrahydro-5H-pyrido[4,3-b]indole-5-carboxamide]", "values": [
      {"measurement": "minimal effective concentration", "setting": "[1]", "value": 10.3, "unit": "µM"},
      {"measurement": "minimal effective concentration", "setting": "[2]", "value": 32.1, "unit": "µM"}
    ]},
    {"compound": "(E)-8-cyano-2-(3-(2,4-difluorophenyl)allyl)-N-((2-(trifluoromethyl)pyridin-4-yl)methyl)-1,2,3,4-tetrahydro-5H-pyrido[4,3-b]indole-5-carboxamide [Example 129]", "values": [
      {"measurement": "HcL3 Minimal Effective Concentration (MEC)", "setting": "[1]", "value": 0.05, "unit": "µM"},
      {"measurement": "DiMF minimally effective dose (MEC)", "setting": "[2]; decrease in microfilariae motility by subjective visual assessment, observed at 72 hours", "value": 3.5, "unit": "µM"}
    ]},
    {"compound": "N#Cc1ccc2c(c1)c1c(n2C(=O)NCc2ccnc(F)c2)CCN(C/C=C/c2c(F)cc(Cl)cc2F)C1", "note": "[Example 103, (E)-2-(3-(4-chloro-2,6-difluorophenyl)allyl)-8-cyano-N-((2-fluoropyridin-4-yl)methyl)-1,2,3,4-tetrahydro-5H-pyrido[4,3-b]indole-5-carboxamide]", "values": [
      {"measurement": "minimal effective concentration", "setting": "[1]", "value": 0.2, "unit": "µM"},
      {"measurement": "minimal effective concentration", "setting": "[2]", "value": 3.3, "unit": "µM"}
    ]},
    {"compound": "O=C(NCc1ccnc(Cl)c1)n1c2c(c3cc(C(F)(F)F)ccc31)CN(C/C=C/c1ccc(Cl)c(Cl)c1)CC2", "note": "[Example 333, (E)-N-((2-chloropyridin-4-yl)methyl)-2-(3-(3,4-dichlorophenyl)allyl)-8-(trifluoromethyl)-1,2,3,4-tetrahydro-5H-pyrido[4,3-b]indole-5-carboxamide]", "values": [
      {"measurement": "minimal effective concentration", "setting": "[1]", "value": 1.8, "unit": "µM"},
      {"measurement": "minimal effective concentration", "setting": "[2]", "value": "> 100", "unit": "µM"}
    ]},
    {"compound": "N#Cc1ccc2c(c1)c1c(n2C(=O)NCc2ccnc(F)c2)CCN(C/C=C/c2cc(F)ccc2Br)C1", "note": "[Example 107, (E)-2-(3-(2-bromo-5-fluorophenyl)allyl)-8-cyano-N-((2-fluoropyridin-4-yl)methyl)-1,2,3,4-tetrahydro-5H-pyrido[4,3-b]indole-5-carboxamide]", "values": [
      {"measurement": "minimal effective concentration", "setting": "[1]", "value": 0.5, "unit": "µM"},
      {"measurement": "minimal effective concentration", "setting": "[2]", "value": 1.8, "unit": "µM"}
    ]}
  ]
}
